According to PubChem BioAssay AID2060353 (Molecular Pharmacology Branch, DTP, NCI, 2025):

Test system: 521955-158-R2-J5-PDC spheroids with stroma, growth inhibition
Test: Anticancer human tumor 521955-158-R2-J5-PDC patient-derived pancreatic carcinoma cell line growth inhibition [TAK]
Conditions: for IC50: curve of first compound; for viability, T/C: stronger effect = lower value
Method in brief: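 Drug combinations, each paired with TAK-243 or ipatasertib, were tested on multi-cell spheroids of 60% malignant cells, 25% HUVEC and 15% hMSC. Top concentrations were at or near the clinical Cmax (10 microM if undetermined), decreasing by half-log; viability is given as % test/control.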

[1] = second compound 0.3 µM, first compound 0.000316 µM
[2] = second compound 0.3 µM, first compound 0.001 µM
[3] = second compound 0.3 µM, first compound 0.00316 µM
[4] = second compound 0.3 µM, first compound 0.01 µM
[5] = second compound 0.3 µM, first compound 0.0316 µM
[6] = second compound 0.3 µM, first compound 0.1 µM
[7] = second compound 0.949 µM, first compound 0.000316 µM
[8] = second compound 0.949 µM, first compound 0.001 µM
[9] = second compound 0.949 µM, first compound 0.00316 µM
[10] = second compound 0.949 µM, first compound 0.01 µM
[11] = second compound 0.949 µM, first compound 0.0316 µM
[12] = second compound 0.949 µM, first compound 0.1 µM
[13] = second compound 3 µM, first compound 0.000316 µM
[14] = second compound 3 µM, first compound 0.001 µM
[15] = second compound 3 µM, first compound 0.00316 µM
[16] = second compound 3 µM, first compound 0.01 µM
[17] = second compound 3 µM, first compound 0.0316 µM
[18] = second compound 3 µM, first compound 0.1 µM
[19] = second compound 9.49 µM, first compound 0.000316 µM
[20] = second compound 9.49 µM, first compound 0.001 µM
[21] = second compound 9.49 µM, first compound 0.00316 µM
[22] = second compound 9.49 µM, first compound 0.01 µM
[23] = second compound 9.49 µM, first compound 0.0316 µM
[24] = second compound 9.49 µM, first compound 0.1 µM
[25] = second compound 30 µM, first compound 0.000316 µM
[26] = second compound 30 µM, first compound 0.001 µM
[27] = second compound 30 µM, first compound 0.00316 µM
[28] = second compound 30 µM, first compound 0.01 µM
[29] = second compound 30 µM, first compound 0.0316 µM
[30] = second compound 30 µM, first compound 0.1 µM
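Also: spheroids exposed to drugs for seven days before readout.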
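For viability, T/C in this document: 100% = DMSO vehicle control viability.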

## CCCS(=O)(=O)Nc1ccc(F)c(C(=O)c2c[nH]c3ncc(-c4ccc(Cl)cc4)cc23)c1F + CC(C)NCC(C(=O)N1CCN(c2ncnc3c2C(C)CC3O)CC1)c1ccc(Cl)cc1
Second compound 0.3 µM
  IC50: > 100000 nM
Second compound 0.949 µM
  IC50: > 100000 nM
Second compound 3 µM
  IC50: 15900 nM
Second compound 9.49 µM
  IC50: 6340 nM
Second compound 30 µM
  IC50: 1140 nM
Second compound 0.3 µM, first compound 0.316 µM
  viability, T/C: 107%
Second compound 0.3 µM, first compound 1 µM
  viability, T/C: 134%
Second compound 0.3 µM, first compound 3.16 µM
  viability, T/C: 108%
Second compound 0.3 µM, first compound 10 µM
  viability, T/C: 165%
Second compound 0.3 µM, first compound 31.6 µM
  viability, T/C: 18.9%
Second compound 0.3 µM, first compound 100 µM
  viability, T/C: 122%
Second compound 0.949 µM, first compound 0.316 µM
  viability, T/C: 108%
Second compound 0.949 µM, first compound 1 µM
  viability, T/C: 123%
Second compound 0.949 µM, first compound 3.16 µM
  viability, T/C: 107%
Second compound 0.949 µM, first compound 10 µM
  viability, T/C: 103%
Second compound 0.949 µM, first compound 31.6 µM
  viability, T/C: 22.2%
Second compound 0.949 µM, first compound 100 µM
  viability, T/C: 111%
Second compound 3 µM, first compound 0.316 µM
  viability, T/C: 100%
Second compound 3 µM, first compound 1 µM
  viability, T/C: 99.4%
Second compound 3 µM, first compound 3.16 µM
  viability, T/C: 99.2%
Second compound 3 µM, first compound 10 µM
  viability, T/C: 70.1%
Second compound 3 µM, first compound 31.6 µM
  viability, T/C: 19.9%
Second compound 3 µM, first compound 100 µM
  viability, T/C: 12.1%
Second compound 9.49 µM, first compound 0.316 µM
  viability, T/C: 84.8%
Second compound 9.49 µM, first compound 1 µM
  viability, T/C: 89.8%
Second compound 9.49 µM, first compound 3.16 µM
  viability, T/C: 69.9%
Second compound 9.49 µM, first compound 10 µM
  viability, T/C: 36.1%
Second compound 9.49 µM, first compound 31.6 µM
  viability, T/C: 14.2%
Second compound 9.49 µM, first compound 100 µM
  viability, T/C: 6.73%
Second compound 30 µM, first compound 0.316 µM
  viability, T/C: 51.7%
Second compound 30 µM, first compound 1 µM
  viability, T/C: 50.9%
Second compound 30 µM, first compound 3.16 µM
  viability, T/C: 40.4%
Second compound 30 µM, first compound 10 µM
  viability, T/C: 5.79%
Second compound 30 µM, first compound 31.6 µM
  viability, T/C: 4.82%
Second compound 30 µM, first compound 100 µM
  viability, T/C: 4.7%

## COC1CC2CCC(C)C(O)(O2)C(=O)C(=O)N2CCCCC2C(=O)OC(C(C)CC2CCC(OCCO)C(OC)C2)CC(=O)C(C)C=C(C)C(O)C(OC)C(=O)C(C)CC(C)C=CC=CC=C1C (stereo not given) + CC(C)NCC(C(=O)N1CCN(c2ncnc3c2C(C)CC3O)CC1)c1ccc(Cl)cc1
Second compound 0.3 µM
  IC50: > 100 nM
Second compound 0.949 µM
  IC50: > 100 nM
Second compound 3 µM
  IC50: > 100 nM
Second compound 9.49 µM
  IC50: > 100 nM
Second compound 30 µM
  IC50: < 0.316 nM
[1]
  viability, T/C: 118%
[2]
  viability, T/C: 95.9%
[3]
  viability, T/C: 77.3%
[4]
  viability, T/C: 76%
[5]
  viability, T/C: 82.4%
[6]
  viability, T/C: 65.5%
[7]
  viability, T/C: 79.4%
[8]
  viability, T/C: 75.1%
[9]
  viability, T/C: 79.8%
[10]
  viability, T/C: 79.7%
[11]
  viability, T/C: 89%
[12]
  viability, T/C: 86.7%
[13]
  viability, T/C: 97.8%
[14]
  viability, T/C: 98.3%
[15]
  viability, T/C: 93.9%
[16]
  viability, T/C: 80.9%
[17]
  viability, T/C: 75.7%
[18]
  viability, T/C: 76.2%
[19]
  viability, T/C: 78.3%
[20]
  viability, T/C: 84.5%
[21]
  viability, T/C: 78.6%
[22]
  viability, T/C: 68.3%
[23]
  viability, T/C: 60.9%
[24]
  viability, T/C: 60.6%
[25]
  viability, T/C: 46.4%
[26]
  viability, T/C: 42.2%
[27]
  viability, T/C: 33.8%
[28]
  viability, T/C: 26.7%
[29]
  viability, T/C: 31.2%
[30]
  viability, T/C: 32.4%

## CC(C)n1nc(-c2ccc3oc(N)nc3c2)c2c(N)ncnc21 + CC(C)NCC(C(=O)N1CCN(c2ncnc3c2C(C)CC3O)CC1)c1ccc(Cl)cc1
Second compound 0.3 µM
  IC50: 32 nM
Second compound 0.949 µM
  IC50: 34.9 nM
Second compound 3 µM
  IC50: 17.7 nM
Second compound 9.49 µM
  IC50: 8.6 nM
Second compound 30 µM
  IC50: 0.516 nM
[1]
  viability, T/C: 106%
[2]
  viability, T/C: 96.9%
[3]
  viability, T/C: 85%
[4]
  viability, T/C: 60.4%
[5]
  viability, T/C: 54.8%
[6]
  viability, T/C: 36.5%
[7]
  viability, T/C: 78.3%
[8]
  viability, T/C: 69.3%
[9]
  viability, T/C: 65.7%
[10]
  viability, T/C: 66.9%
[11]
  viability, T/C: 49.6%
[12]
  viability, T/C: 36%
[13]
  viability, T/C: 83.5%
[14]
  viability, T/C: 77.8%
[15]
  viability, T/C: 84.8%
[16]
  viability, T/C: 62.3%
[17]
  viability, T/C: 37.6%
[18]
  viability, T/C: 28.2%
[19]
  viability, T/C: 110%
[20]
  viability, T/C: 102%
[21]
  viability, T/C: 79.2%
[22]
  viability, T/C: 44.2%
[23]
  viability, T/C: 29.1%
[24]
  viability, T/C: 19.3%
[25]
  viability, T/C: 52.1%
[26]
  viability, T/C: 47.1%
[27]
  viability, T/C: 37.5%
[28]
  viability, T/C: 17.1%
[29]
  viability, T/C: 10.4%
[30]
  viability, T/C: 9.55%
